Laboratory results as given in PubChem BioAssay (NCI).
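Assay format: 96-well plates, 48-hour exposure. Here, GI50 denotes the concentration required for 50% inhibition of growth. TGI denotes the concentration required for complete inhibition of growth.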

Columns and labels:
Assay in all cases: NCI anticancer screen, dose series, 48 h
SK-OV-3 ovarian = system: SK-OV-3 ovarian
NCI-H23 lung = system: NCI-H23 lung
U251 CNS = system: U251 CNS
KM12 colon = system: KM12 colon
SF-539 CNS = system: SF-539 CNS
SN12C renal = system: SN12C renal
HCC-2998 colon = system: HCC-2998 colon
COLO 205 colon = system: COLO 205 colon
NCI-H522 lung = system: NCI-H522 lung
HOP-92 NSCLC = system: HOP-92 NSCLC

| Compound | TGI (SK-OV-3 ovarian) | TGI (NCI-H23 lung) | TGI (U251 CNS) | TGI (KM12 colon) | TGI (SF-539 CNS) | TGI (SN12C renal) | TGI (HCC-2998 colon) | TGI (COLO 205 colon) | TGI (NCI-H522 lung) | TGI (HOP-92 NSCLC) | GI50 (SK-OV-3 ovarian) | GI50 (NCI-H23 lung) | GI50 (U251 CNS) | GI50 (KM12 colon) | GI50 (SF-539 CNS) | GI50 (SN12C renal) | GI50 (NCI-H522 lung) | GI50 (COLO 205 colon) | GI50 (HOP-92 NSCLC) | GI50 (HCC-2998 colon) |
| --- | --- | --- | --- | --- | --- | --- | --- | --- | --- | --- | --- | --- | --- | --- | --- | --- | --- | --- | --- | --- |
| O=P1(c2ccccc2)CCCCC1 | > 100 µM | > 100 µM | > 100 µM | > 100 µM | > 100 µM | > 100 µM | > 100 µM | > 100 µM | – | – | – | – | – | – | – | – | – | – | – | – |
| Cc1nc2sc3c(c2c(=O)[nH]1)CCCC3 | > 100 µM | > 100 µM | > 100 µM | > 100 µM | > 100 µM | > 100 µM | – | > 100 µM | > 100 µM | > 100 µM | – | – | – | – | – | – | – | – | – | – |
| CC1COC(C)(C)P(=O)(c2ccccc2)C1 (stereo not given) | > 100 µM | > 100 µM | > 100 µM | > 100 µM | > 100 µM | > 100 µM | > 100 µM | > 100 µM | > 100 µM | – | – | – | – | – | – | – | – | – | – | – |
| CC(=O)[O][Ga]([Br])[O]C(C)=O | > 100 µM | > 100 µM | > 100 µM | > 100 µM | > 100 µM | > 100 µM | – | > 100 µM | > 100 µM | > 100 µM | > 100 µM | > 100 µM | > 100 µM | > 100000 nM | > 100000 nM | > 100000 nM | > 100000 nM | > 100000 nM | > 100000 nM | – |
| O=C(O)c1ccc(OCc2ccccc2)c(Cl)c1 | > 100 µM | > 100 µM | > 100 µM | > 100 µM | > 100 µM | > 100 µM | – | > 100 µM | > 100 µM | > 100 µM | – | – | – | – | – | – | – | – | – | – |
| NCCSc1nc(-c2ccccc2)c(-c2ccccc2)o1 | > 100 µM | > 100 µM | > 100 µM | > 100 µM | > 100 µM | > 100 µM | – | > 100 µM | > 100 µM | > 100 µM | – | – | – | – | – | – | – | – | – | – |
| Cc1ccc(C)c(N=C2NC(=O)C(CC(=O)Nc3ccc(Cl)cc3Cl)S2)c1 (stereo not given) | > 100 µM | > 100 µM | > 100 µM | > 100 µM | > 100 µM | > 100 µM | > 100 µM | > 100 µM | 56.5 µM | – | – | – | – | – | – | – | – | – | – | – |
| COC(=O)/C=C1\CCC(C)O1 (stereo not given) | > 100 µM | > 100 µM | > 100 µM | > 100 µM | > 100 µM | > 100 µM | > 100 µM | > 100 µM | – | > 100 µM | – | – | – | – | – | – | – | – | – | – |
| CC(C)N(CCn1c2c3ccccc3ccc2c2oc(=O)c3ccccc3c21)C(C)C | > 100 µM | > 100 µM | > 100 µM | > 100 µM | > 74.1 µM | > 100 µM | – | > 100 µM | > 100 µM | > 92.3 µM | – | – | – | – | – | – | – | – | – | – |
| Cc1ccc(NC(=O)CSc2nnc(-c3ccc(N=Cc4ccc(Cl)cc4)cc3)o2)cc1 | > 100 µM | > 100 µM | > 100 µM | > 100 µM | – | > 100 µM | – | > 100 µM | > 100 µM | – | – | – | – | – | – | – | – | – | – | – |
| O[C@H](c1cc(C(F)(F)F)nc2c(C(F)(F)F)cccc12)[C@@H]1CCCCN1 | 17.8 µM | 16.6 µM | 8.38 µM | 3.34 µM | 15 µM | 14 µM | 4.13 µM | 4.27 µM | – | 8.43 µM | 6.11 µM | 4.75 µM | 3.05 µM | 1630 nM | 6430 nM | 4190 nM | – | 1980 nM | 1790 nM | 1.85 µM |
| O=Cc1ccc2c(c1-c1c(C=O)ccc3c1OCO3)OCO2 | > 100 µM | > 100 µM | > 100 µM | > 100 µM | > 100 µM | > 100 µM | > 100 µM | > 100 µM | > 100 µM | – | – | – | – | – | – | – | – | – | – | – |
| Cc1cc(NS(=O)(=O)c2ccc(Nc3c4ccccc4nc4c(C(=O)N5CCN(CCO)CC5)ccc(Cl)c34)cc2)no1 | > 100 µM | > 100 µM | > 100 µM | > 100 µM | > 100 µM | > 100 µM | > 100 µM | > 100 µM | – | > 100 µM | – | – | – | – | – | – | – | – | – | – |
| CC(=O)O[C@H]1CCC2[C@@H]3CCC4Nc5[nH]ncc5C[C@]4(C)C3CC[C@@]21C (stereo not given in full) | > 100 µM | > 100 µM | > 100 µM | > 100 µM | > 100 µM | > 100 µM | 79.7 µM | > 100 µM | 83.2 µM | – | – | – | – | – | – | – | – | – | – | – |
| COc1ncc(-c2ccc3ncnc(Nc4cccc(Cl)c4)c3c2)cc1NS(=O)(=O)C1CC1 | – | > 100 µM | > 100 µM | > 100 µM | > 100 µM | > 100 µM | > 100 µM | > 100 µM | – | > 100 µM | – | 3.8 µM | 4.75 µM | 38900 nM | 2870 nM | 1580 nM | – | > 100000 nM | 394 nM | > 100 µM |
| COc1ccc(-n2c(C)cc(-c3ccccc3)c2C)cc1 | 68.6 µM | 16.2 µM | 25.4 µM | 35.3 µM | 17.4 µM | > 100 µM | 11.4 µM | 5.95 µM | 4.68 µM | – | 6.83 µM | 2.16 µM | 2.87 µM | 2850 nM | 2960 nM | 2840 nM | 1480 nM | 2420 nM | – | 3.04 µM |
